The structures appear in SMILES notation.

This note sets out measurements from patent US7759337B2, “Phthalazine compounds and methods of use” (Amgen Inc., priority 2005, dated 2010).

For the assay, the system named is production of TNF by monocytes activated with bacterial lipopolysaccharide (LPS). Put plainly: Lipopolysaccharide-activated monocyte TNF production assay. The class given is cell-based. The note with it: Homo sapiens; whole blood monocyte assay (LPS induced TNF release). An outline of the steps: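 Adherent human PBMC-derived monocytes preincubated 60 min with nine two-fold compound dilutions, then stimulated with E. coli K532 LPS (30 ng/mL in the added medium) for 4 h at 37 °C. Supernatant TNF measured by sandwich ELISA; IC50 is the compound concentration halving TNF production, from second-order polynomial fits.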
The compound `Cc1ccc(C(=O)NC2CC2)cc1-c1ccc2c(N3CCn4c(nnc4C(F)(F)F)C3)nncc2c1` [Example 104, N-cyclopropyl-4-methyl-3-(1-(3-(trifluoromethyl)-5,6-dihydro-[1,2,4]triazolo[4,3-a]pyrazin-7(8H)-yl)phthalazin-6-yl)benzamide] returned an IC50 of no more than 5 µM.
The result for `Cc1ccc(C(=O)NC2CC2)cc1-c1ccc2c(-c3ccccc3C(F)(F)F)nncc2c1` [Example 254, N-cyclopropyl-4-methyl-3-{1-[2-(trifluoromethyl)phenyl]phthalazin-6-yl}benzamide] reads no more than 5 µM; that for `COc1c(C)cccc1-c1nncc2cc(-c3cc(C(N)=O)ccc3C)ccc12` [Example 204, 3-[1-(2-methoxy-3-methylphenyl)phthalazin-6-yl]-4-methylbenzamide], no more than 5 µM.
`CSc1ccc(-c2nncc3cc(-c4cc(C(=O)NC5CC5)ccc4C)ccc23)c(C)c1` [Example 261, N-cyclopropyl-4-methyl-3-{1-[2-methyl-4-(methylsulfanyl)phenyl]phthalazin-6-yl}benzamide]: the half-inhibitory concentration (IC50) is no more than 5 µM.
The result for `Cc1ccc(C(=O)NC2CC2)cc1-c1ccc2c(N3CCC[C@H]3C)nncc2c1` [Example 296, N-cyclopropyl-4-methyl-3-{1-[(2R)-2-methylpyrrolidin-1-yl]phthalazin-6-yl}benzamide] reads no more than 5 µM; that for `Cc1ccc(C(N)=O)cc1-c1ccc2c(N3CCNC[C@@H]3C)nncc2c1` [Example 146, 4-methyl-3-{1-[(2S)-2-methylpiperazin-1-yl]phthalazin-6-yl}benzamide], no more than 5 µM; that for `Cc1ccc(C(N)=O)cc1-c1ccc2c(N3CCCC[C@H]3C)nncc2c1` [Example 182, 4-methyl-3-{1-[(2R)-2-methylpiperidin-1-yl]phthalazin-6-yl}benzamide], no more than 5 µM.
The result for `Cc1ccc(S(N)(=O)=O)cc1-c1ccc2c(NC(C)C)nncc2c1` [Example 357, 3-[1-(isopropylamino)phthalazin-6-yl]-4-methylbenzenesulfonamide] reads no more than 5 µM.
Consider `Cc1ccc(C(=O)NC2CC2)cc1-c1ccc2c(Oc3cccnc3C)nncc2c1` [Example 308, N-cyclopropyl-4-methyl-3-{1-[(2-methylpyridin-3-yl)oxy]phthalazin-6-yl}benzamide], for which the IC50 is no more than 5 µM.
`Cc1ccc(C(N)=O)cc1-c1ccc2c(-c3ccccc3C(F)(F)F)nncc2c1` [Example 220, 4-methyl-3-{1-[2-(trifluoromethyl)phenyl]phthalazin-6-yl}benzamide] yielded a half-inhibitory concentration (IC50) of no more than 5 µM.
With `Cc1ccc(C(=O)NC2CC2)cc1-c1ccc2c(-c3ccc(Cl)cc3)nncc2c1` [Example 209, 3-[1-(4-chlorophenyl)phthalazin-6-yl]-N-cyclopropyl-4-methylbenzamide], the IC50 is no more than 5 µM.
The compound `Cc1ccc(C(=O)NC2CC2)cc1-c1ccc2c(C(=O)N3CCOCC3)nncc2c1` [Example 85, N-Cyclopropyl-4-methyl-3-[1-(morpholin-4-ylcarbonyl)phthalazin-6-yl]benzamide] showed an IC50 of no more than 5 µM.
In the case of `Cc1ccc(C(=O)NC2CC2)cc1-c1ccc2c(N3CCNC[C@@H]3C)nncc2c1` [Example 63, N-cyclopropyl-4-methyl-3-(1-((S)-2-methylpiperazin-1-yl)phthalazin-6-yl)benzamide] it was no more than 5 µM; in that of `Cc1ccc2c(N)nsc2c1-c1ccc2c(N3CCOC[C@@H]3C)nncc2c1` [Example 367, 6-methyl-7-{1-[(3S)-3-methylmorpholin-4-yl]phthalazin-6-yl}-1,2-benzisothiazol-3-amine], no more than 5 µM.
In the case of `Cc1ccc([N+](=O)[O-])cc1-c1ccc2c(N3CCOCC3)nncc2c1` [Example 137, 6-(2-methyl-5-nitrophenyl)-1-morpholin-4-ylphthalazine] it was no more than 5 µM.
Compound `Cc1ccc(C(=O)NC2CC2)cc1-c1ccc2c(-c3ccccc3C(N)=O)nncc2c1` [Example 98, 3-(1-(2-(aminocarbonyl)phenyl)-6-phthalazinyl)-N-cyclopropyl-4-methylbenzamide] yielded an IC50 of no more than 5 µM.
